Measured values from US4929751A, “Vinyl tricarbonyl compounds and methods of making the same” (Yale University, priority 1987, dated 1990).

Columns and labels:
Assay in all cases: disease category selectivity
Assay type in all cases: cell-based
breast cell lines = system: breast cell lines
Text: (§1) As described below, the data in Table 1 serve to display the testing results on disease category selectivity in a bar graph format. Bars projecting to the right of the reference (vertical line of asterisks) indicate greater than average sensitivity to the test compound. Each bar represents one power of ten in sensitivity, so that the results for OVCAR-5 (ovarian tumor) indicate a remarkable […] increase in sensitivity over the reference test.
(§2) Table 1 reports and illustrates the results obtained by testing t-butyl 2,3-dioxo-pent-4-enoate hydrate. The concentration of this compound found to inhibit the growth of each cell line listed under "CELL" by 50% is reported under "LOG(IC50)" as the logarithm of the concentration. The units of concentration are either molarity in which case an "M" is shown in parentheses next to the LOG(IC50) label, or micrograms per ml, in which case a "W" (for weight) is shown in parenthesis. The cell line names are grouped by disease type and the disease type names are listed on the far left.
(§3) The graph on the right depicts the data on the left in a format called a "MEAN GRAPH" which is designed to aid in the identification of differential growth inhibition. […] The interest in using this concept of differential growth inhibition as a criterion of activity in the screening system is to encourage the discovery of new types of anticancer agents having greater tissue specificity than cancer chemotherapeutic agents in use today.
(§4) The idea for the Mean Graph resulted from trying to detect differential growth inhibition in a bar graph format Experimentation led to a graph centered at the arithmetic mean (ML) of the logarithm of the IC50'a of all the cell line responses measured for a compound. The Mean Graph is constructed around a vertical reference (indicating ML) by projecting bars to the right or to the left. […] The lengths of the bars are proportional to the differences between the logarithms of the specific cell line IC50's and the overall mean value ML. These lengths represent differences in logarithms which are equivalent to the ratios of the specific IC50's to the geometric mean of all the IC50's. Therefore, a useful property of the Mean Graph format is the ability to compare patterns derived from IC50's measured in different units, e.g, micrograms per ml and molarity. The units cancel in the division process.
(§5) Differential growth inhibition is depicted as a bar projecting some distance to the right of ML. A bar projecting three log units to the right of ML, for example, would reflect a cellular sensitivity 1000 times greater than ML. While any degree of sensitivity greater than ML might theoretically be considered differential growth inhibition, in practice one must consider the experimental error in the measurement and at what point the degree of differential growth inhibition becomes meaningful in biological terms. The three values listed a the bottom of the graph provide the value of ML as "AVE LOG(IC50)", the greatest difference from ML as "DELTA" and the difference between the least sensitive cell line and the most sensitive cell line as the "RANGE".

PS cell lines = system: PS cell lines
Text: as §1, §2, §3, §4, §5

renal cell lines = system: renal cell lines
Text: as §1, §2, §3, §4, §5

ovarian cell lines = system: ovarian cell lines
Text: as §1, §2, §3, §4, §5

[1] = system: resistant breast cancer cell lines; details: RESISTB
Text: as §1, §2, §3, §4, §5

leukemia cell lines = details: LEUK
Text: as §1, §2, §3, §4, §5

[2] = system: central nervous system cell lines; details: CNS
Text: as §1, §2, §3, §4, §5

melanoma cell lines = details: MEL
Text: as §1, §2, §3, §4, §5

[3] = system: nonsmall cell lung cancer cell lines; details: NSCLC
Text: as §1, §2, §3, §4, §5

[4] = system: small cell lung cancer cell lines; details: SCLC
Text: as §1, §2, §3, §4, §5

[5] = system: RESISTL (resistant lung cancer) cell lines
Text: as §1, §2, §3, §4, §5

colon cell lines = system: colon cell lines
Text: as §1, §2, §3, §4, §5

[6] = mean LOG(IC50) of category, 1 cell line, read-out: MEAN CAT (converted)
[7] = mean LOG(IC50) of category, 5 cell lines, read-out: MEAN CAT (converted)
[8] = mean LOG(IC50) of category, 4 cell lines, read-out: MEAN CAT (converted)

C=CC(=O)C(O)(O)C(=O)OC(C)(C)C [t-butyl 2,3-dioxo-pent-4-enoate hydrate]
DIFF CAT (breast cell lines; difference from mean): 0.1
IC50 (breast cell lines; [6]): 100 µM
DIFF CAT (PS cell lines; difference from mean): 0.1
IC50 (PS cell lines; [6]): 100 µM
DIFF CAT (renal cell lines; difference from mean): 0.1
IC50 (renal cell lines; mean LOG(IC50) of category, 3 cell lines, read-out: MEAN CAT (converted)): 79.4 µM
DIFF CAT (ovarian cell lines; difference from mean): -0.2
IC50 (ovarian cell lines; [7]): 50.1 µM
DIFF CAT ([1]; difference from mean): 0.1
IC50 [1, 6]: 100 µM
DIFF CAT (leukemia cell lines; difference from mean): -0.4
IC50 (leukemia cell lines; mean LOG(IC50) of category, 2 cell lines, read-out: MEAN CAT (converted)): 31.6 µM
DIFF CAT ([2]; difference from mean): 0.2
IC50 [2, 8]: 100 µM
DIFF CAT (melanoma cell lines; difference from mean): 0
IC50 (melanoma cell lines; [7]): 79.4 µM
DIFF CAT ([3]; difference from mean): 0
IC50 ([3]; mean LOG(IC50) of category, 10 cell lines, read-out: MEAN CAT (converted)): 79.4 µM
DIFF CAT ([4]; difference from mean): 0
IC50 [4, 7]: 79.4 µM
DIFF CAT ([5]; difference from mean): 0.2
IC50 [5, 6]: 126 µM
DIFF CAT (colon cell lines; difference from mean): -0.1
IC50 (colon cell lines; [8]): 63.1 µM
